# In patent US20080051424A1, “Heterocyclyl-substituted nonadepsipeptides” (priority 2004, published 2008):
# Starred links: 1 amine or outer side, 2 acyl side, 3 side chain; linkers in the order of their positions; H or OH if unused. Positions of bridges follow the written chain, without caps; N, C: chain ends. Non-standard residues stand in square brackets, D forms with d. Residues, ends and D or L forms follow the SMILES beside them. Phe(3R-OH) = O=C([C@@H](N[*:1])[C@H](O[*:3])c1ccccc1)[*:2]; X1 = CC1CC(C)NC(NCCC[C@@H](N[*:1])C(=O)[*:2])=N1; Asn(3S-OH) = NC(=O)[C@@H](O)[C@H](N)C(=O)O; Leu(3R-OH) = CC(C)[C@@H](O)[C@H](N)C(=O)O; aThr = C[C@H](O)[C@H](N)C(=O)O
# Key:
# [1] = test system: Streptococcus pneumoniae G9a; assay type: cell-based
# Protocol: (§1) Determination of the Minimum Inhibitory Concentration (MIC): The MIC is determined in the liquid dilution test in accordance with the NCCLS guidelines. Overnight cultures of Staphylococcus aureus 133, Entercococcus faecalis 27159, E. faecium 4147 and Streptococcus pneumoniae G9a are incubated with the described test substances in a 1:2 dilution series. The MIC determination is carried out with a cell count of 10^5 microorganisms per ml in Isosensitest medium (Difco, Irvine/USA), with the exception of S. pneumoniae, which is tested in BHI broth (Difco, Irvine/USA) with 10% bovine serum at a cell count of 10^6 microorganisms per ml. The cultures are incubated at 37° C. for 18-24 hours, S. pneumoniae in the presence of 10% CO2. The lowest substance concentration in each case at which no visible bacterial growth occurs any more is defined as the MIC. The MIC values are reported in μg/ml.
# [2] = test system: Staphylococcus aureus 133; assay type: cell-based
# Protocol: as §1
# E. faecalis ICB 27159 = assay type: cell-based, Enterococcus faecalis
# Protocol: as §1
smiles,measurement,setting,value
"CC[C@H](C)[C@@H]1NC(=O)[C@@H](CCCNC2=NC(C)CC(C)N2)NC(=O)[C@H](CC(C)C)NC(=O)[C@H]([C@H](O)C(C)C)NC(=O)[C@@H](NC(=O)[C@H](CC(C)C)NC(=O)[C@H](N)CC(C)C)[C@@H](c2ccccc2)OC(=O)[C@H](CO)NC(=O)[C@H]([C@H](O)C(N)=O)NC(=O)CNC(=O)[C@H]([C@H](C)O)NC1=O.O=C(O)C(F)(F)F.O=C(O)C(F)(F)F (stereo partly drawn) [Example 3, N^ω.6,N^ω′.6-(Pentane[2,4]diyl)lysobactin] (H-[dL]L[Phe(3R-OH)][Leu(3R-OH)]L[X1]I[aThr]G[Asn(3S-OH)]S; ester 3-C)",MIC S. pneumoniae,[1],0.5 µg/mL
same,MIC S. aureus 133,[2],0.5 µg/mL
same,MIC E. faecalis ICB 27159,E. faecalis ICB 27159,2 µg/mL
